Patent US20070122344A1, “Intraoperative determination of nerve location” (University of Rochester Medical Center Office of Technology …, priority 2005, published 2007)
“Also recorded” adds a separate entry of the source. Where two headings read alike, the source gives them in different places.

Assays:
mammals = settings: cited from earlier work
cavernous nerves = test: NIRF intraoperative imaging of rat cavernous nerves after injection of ICG into the crura; type: in vivo; settings: rats
Description: The area was examined for retrograde axonal transport at different time points, using a NIRF intraoperative imaging system (SPY®, Novadaq Technologies Inc., Mississauga, Ontario, Canada) that illuminates tissues with a 805 nm laser and captures images with a camera sensitive to infrared fluorescence. Near infrared microscopy and conventional histology were used to confirm the macroscopically identified fluorescent structures. […] (These were specific time points at which examinations were made. […] The fluorescent nerves were then excised.

[1] = cited from earlier work
[2] = mammals, several months after the treatment

Row | Molecule | neuronal toxicity (mammals; [2]) | neuronal toxicity (mammals; used in mammals) | identification of the cavernous nerves by fluorescence (cavernous nerves; ICG injected into both crura, examined at 6, 8, 12, 18, 24 and 36 hours post injection, NIRF imaging (SPY)) | fluorescence of the cavernous nerves at longer post-injection periods (cavernous nerves; ICG injected into crura, e.g. 30 days post-injection) | distribution ([1]; after intravenous injection, with normal vascular permeability) | excretion ([1]; after intravenous injection) | metabolism in the body ([1]; after intravenous injection) | enterohepatic recirculation ([1]; in vivo) | reabsorption from the intestine ([1]; in vivo)
1 | N=C(N)c1ccc(/C=C/c2ccc(C(=N)N)cc2O)cc1 [Fluorogold] | without evidence of neuronal toxicity | low evidence of neuronal toxicity |  |  |  |  |  |  | 
2 | CC1(C)C(/C=C/C=C/C=C/C=C2\N(CCCCS(=O)(=O)O)c3ccc4ccccc4c3C2(C)C)=[N+](CCCCS(=O)(=O)[O-])c2ccc3ccccc3c21 [ICG, indocyanine green] | without evidence of neuronal toxicity | low evidence of neuronal toxicity | permitted identification of the nerves; also recorded: nerves were identified in situ | not detectable | remains intravascular | excreted exclusively by the liver | not metabolized | does not undergo enterohepatic recirculation | not reabsorbed
3 | Fast Blue | without evidence of neuronal toxicity | low evidence of neuronal toxicity |  |  |  |  |  |  | 
